Results taken from ChEMBL document CHEMBL5143566, “Discovery of Pyrazolo[1,5-a]pyrazin-4-ones as Potent and Brain Penetrant GluN2A-Selective Positive Allosteric Modulators Reducing AMPA Receptor Binding Activity” (Bioorg Med Chem, 2022).
Active and inactive are the calls of the source. The calls are words filed in the database; no cut-off is given here.

How the values were obtained:
[1] = 1-Octanol/aqueous buffer distribution coefficient, log D of the compound at pH 7.4 by HPLC analysis; type: physicochemical
[2] = target: T1, Glutamate receptor 2 (Homo sapiens, UniProt P42262); assay: Displacement of [3H]-HBT1 from His-tagged GluA2-AMPA (unknown origin) receptor expressed in CHO cells in presence of glutamate by scintillation proximity assay; type: cell-based
T1 sequence (P42262 whole entry): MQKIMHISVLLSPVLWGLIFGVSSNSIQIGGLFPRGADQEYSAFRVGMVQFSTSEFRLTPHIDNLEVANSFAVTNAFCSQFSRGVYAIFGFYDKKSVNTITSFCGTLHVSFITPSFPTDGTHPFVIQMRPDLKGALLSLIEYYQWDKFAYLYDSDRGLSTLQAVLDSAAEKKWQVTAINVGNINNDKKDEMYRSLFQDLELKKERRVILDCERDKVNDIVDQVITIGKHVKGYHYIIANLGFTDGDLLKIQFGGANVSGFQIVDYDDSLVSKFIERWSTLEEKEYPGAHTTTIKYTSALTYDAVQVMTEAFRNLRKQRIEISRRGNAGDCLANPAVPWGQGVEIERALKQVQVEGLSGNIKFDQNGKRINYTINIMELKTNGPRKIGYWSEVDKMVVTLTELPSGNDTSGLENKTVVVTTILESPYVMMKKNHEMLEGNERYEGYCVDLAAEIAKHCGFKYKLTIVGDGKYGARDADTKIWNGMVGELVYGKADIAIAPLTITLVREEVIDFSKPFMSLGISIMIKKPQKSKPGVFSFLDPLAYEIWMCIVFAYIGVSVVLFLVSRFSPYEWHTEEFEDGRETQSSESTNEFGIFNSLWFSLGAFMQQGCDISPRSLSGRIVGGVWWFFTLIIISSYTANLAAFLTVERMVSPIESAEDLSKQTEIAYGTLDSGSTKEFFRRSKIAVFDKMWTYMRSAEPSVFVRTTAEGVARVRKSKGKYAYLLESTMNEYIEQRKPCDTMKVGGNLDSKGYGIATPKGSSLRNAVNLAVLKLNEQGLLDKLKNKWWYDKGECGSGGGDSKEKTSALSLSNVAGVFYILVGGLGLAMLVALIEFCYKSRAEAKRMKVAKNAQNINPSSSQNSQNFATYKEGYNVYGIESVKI

[3] = target: T2, Glutamate NMDA receptor; GRIN1/GRIN2A (Homo sapiens, UniProt Q05586+Q12879); assay: Positive allosteric modulator activity at GluN1a/GluN2A (unknown origin) expressed in CHO cells in presence of glutamate by Ca2+ influx assay; type: cell-based
[4] = target: T2, Glutamate NMDA receptor; GRIN1/GRIN2A; assay: Positive allosteric modulator activity at GluN1a/GluN2A (unknown origin) expressed in CHO cells assessed as maximum potentiation at 30 uM in presence of glutamate by Ca2+ influx assay relative to control; type: cell-based
[5] = Clearance in rat liver microsomes at 1 uM in presence of NADPH measured for 15 to 30 min by LC-MS/MS analysis; type: ADME, Microsome; details: time 15-30 min, read-out: CLH
[6] = Clearance in human liver microsomes at 1 uM in presence of NADPH measured for 15 to 30 min by LC-MS/MS analysis; type: ADME, Microsome; details: time 15-30 min, read-out: CLH
[7] = target: Ionotropic glutamate receptor NMDA 1/2D (Homo sapiens, UniProt O15399+Q05586); assay: Positive allosteric modulator activity at GluN1a/GluN2D (unknown origin) expressed in CHO cells in presence of glutamate by Ca2+ influx assay; type: cell-based
[8] = target: Ionotropic glutamate receptor NMDA 1/2D (Homo sapiens) (UniProt Q05586+O15399); assay: Positive allosteric modulator activity at GluN1a/GluN2D (unknown origin) expressed in CHO cells at 30 uM in presence of glutamate by Ca2+ influx assay relative to control; type: cell-based; details: filed as positive allosteric modulator
[9] = Drug concentration in rat brain at 3 mg/kg, po after 0.5 hrs by LC-MS/MS analysis; type: ADME, organism-based; details: read-out: Ct
[10] = Drug concentration in rat brain at 3 mg/kg, po after 1 hrs by LC-MS/MS analysis; type: ADME, organism-based; details: read-out: Ct
[11] = Total clearance in rat at 1 mg/kg, iv by LC-MS/MS analysis; type: ADME, organism-based; details: in vivo
[12] = Drug concentration in rat plasma at 3 mg/kg, po after 1 hrs by LC-MS/MS analysis; type: ADME, organism-based
[13] = system: CHO; assay: Positive allosteric modulator activity at GluN1a/GluN2B (unknown origin) expressed in CHO cells at 30 uM in presence of glutamate by Ca2+ influx assay relative to control; type: cell-based; details: Homo sapiens
[14] = MRT in rat at 10 mg/kg, po by LC-MS/MS analysis; type: ADME, organism-based; details: in vivo
[15] = target: T3, Ionotropic glutamate receptor NMDA 1/2C (Homo sapiens, UniProt Q05586+Q14957); assay: Positive allosteric modulator activity at GluN1a/GluN2C (unknown origin) expressed in CHO cells at 30 uM in presence of glutamate by Ca2+ influx assay relative to control; type: cell-based; details: filed as positive allosteric modulator
[16] = Drug concentration in rat brain at 3 mg/kg, po after 2 hrs by LC-MS/MS analysis; type: ADME, organism-based; details: read-out: Ct
[17] = Cmax in rat at 1 mg/kg, iv by LC-MS/MS analysis; type: ADME, organism-based; parameters: dose 1 mg/kg, route iv; details: in vivo
[18] = Ratio of drug concentration in brain to plasma at 3 mg/kg, po after 2 hr by LC-MS/MS analysis; type: ADME, organism-based; details: rat, brain and plasma, read-out: BPR
[19] = species on record: Homo sapiens; assay: Selectivity index, ratio of EC50 for GluN1a/GluN2D (unknown origin) expressed in CHO cells to EC50 for GluN1a/GluN2A (unknown origin) expressed in CHO cells; type: cell-based
[20] = species on record: Homo sapiens; assay: Selectivity index, ratio of EC50 for GluN1a/GluN2B (unknown origin) expressed in CHO cells to EC50 for GluN1a/GluN2A (unknown origin) expressed in CHO cells; type: cell-based
[21] = Ratio of drug concentration in brain to plasma at 3 mg/kg, po after 0.5 hr by LC-MS/MS analysis; type: ADME, organism-based; details: rat, brain and plasma, read-out: BPR
[22] = target: T3, Ionotropic glutamate receptor NMDA 1/2C; assay: Positive allosteric modulator activity at GluN1a/GluN2C (unknown origin) expressed in CHO cells in presence of glutamate by Ca2+ influx assay; type: cell-based
[23] = Volume of distribution at steady state in rat at 1 mg/kg, iv by LC-MS/MS analysis; type: ADME, organism-based; details: in vivo, read-out: Vdss
[24] = Oral bioavailability in rat at 10 mg/kg by LC-MS/MS analysis; type: ADME, organism-based; details: in vivo
[25] = AUC in rat at 10 mg/kg, po by LC-MS/MS analysis; type: ADME, organism-based; parameters: dose 10 mg/kg, route po; details: in vivo
[26] = Ratio of drug concentration in brain to plasma at 3 mg/kg, po after 1 hr by LC-MS/MS analysis; type: ADME, organism-based; details: rat, brain and plasma, read-out: BPR
[27] = Drug concentration in rat plasma at 3 mg/kg, po after 0.5 hrs by LC-MS/MS analysis; type: ADME, organism-based
[28] = system: Rattus norvegicus; assay: Induction of LTP enhancement in Sprague-Dawley rat assessed as increase in LTP enhancement in hippocampal slices at 10 mg/kg, po; type: functional, organism-based
[29] = species on record: Homo sapiens; assay: Selectivity index, ratio of EC50 for GluN1a/GluN2C (unknown origin) expressed in CHO cells to EC50 for GluN1a/GluN2A (unknown origin) expressed in CHO cells; type: cell-based
[30] = Drug concentration in rat plasma at 3 mg/kg, po after 2 hrs by LC-MS/MS analysis; type: ADME, organism-based
[31] = target: Glutamate receptor ionotropic, NMDA 2A (Homo sapiens) (UniProt Q12879); assay: Positive allosteric modulator activity at GluN2A receptor (unknown origin) assessed as maximum potentiation by FLIPR assay relative to control; details: filed as positive allosteric modulator
[32] = target: T1, Glutamate receptor 2; assay: Positive allosteric modulator activity at GluA2-AMPA receptor (unknown origin) by FLIPR assay
[33] = target: Glutamate receptor ionotropic, NMDA 2A (Homo sapiens, UniProt Q05586+Q12879); assay: Positive allosteric modulator activity at GluN2A receptor (unknown origin) by FLIPR assay
[34] = target: T1, Glutamate receptor 2; assay: Positive allosteric modulator activity at GluA2-AMPA receptor (unknown origin) assessed as maximum potentiation by FLIPR assay relative to control
[35] = target: T1, Glutamate receptor 2; assay: Displacement of [3H]-HBT1 from GluA2-AMPA receptor (unknown origin) in presence of glutamate by scintillation proximity assay
[36] = filed as positive allosteric modulator

## CCN(Cc1cc2ccn(CC#N)c(=O)c2s1)c1ccc(F)cc1
[1]
  logD: 2.63
[2]
  IC50: > 30 µM
[3]
  EC50: > 30 µM
[4]; [36]
  %max: 230%

## CCN(Cc1cc2c(=O)n(CCC#N)cc(C)n2n1)c1ccc(F)cc1
[5]
  microsomal CLint at 1 µM: 91 µL/min/mg
[1]
  logD: 2.83
[2]
  IC50: 22 µM
[3]
  EC50: 0.16 µM
[6]
  microsomal CLint at 1 µM: 37 µL/min/mg
[4]; [36]
  %max: 420%

## Cc1cn([C@H](C)CC#N)c(=O)c2cc(Cn3nc(C(F)F)cc3Cl)nn12
[7]
  EC50: > 30 µM
[8]
  %max: 260%
[9]
  concentration at 0.5 h: 307 ng/g
[10]
  concentration at 1 h: 187 ng/g
[11]
  clearance: 3.92 mL/min/kg
[12]
  concentration at 1 h: 397 ng/mL
[13]
  %max: < 150%
[14]
  MRT: 3.5 h
[15]
  %max: 200%
[16]
  concentration at 2 h: 146 ng/g
[1]
  logD: 2.06
[2]
  IC50: > 30 µM
[17]
  Cmax: 1910 ng/mL
[18]
  Kp at 2 h: 0.51
[19]
  Ratio EC50: 19
[20]
  Ratio EC50: > 59
[21]
  Kp at 0.5 h: 0.59
[22]
  EC50: > 30 µM
[3]
  EC50: 0.51 µM
[23]
  Vd: 0.657 L/kg
[24]
  bioavailability: 21.4%
[25]
  AUC: 9140 ng·h/mL
[26]
  Kp at 1 h: 0.47
[27]
  concentration at 0.5 h: 523 ng/mL
[28]
  Activity: Active
[6]
  microsomal CLint at 1 µM: 33 µL/min/mg
[4]; [36]
  %max: 350%
[29]
  Ratio EC50: 19
[30]
  concentration at 2 h: 286 ng/mL

## CCN(Cc1cc2c(=O)n(CCC#N)ccn2n1)c1ccc(F)cc1
[1]
  logD: 2.45
[2]
  IC50: 22 µM
[3]
  EC50: 5.2 µM
[4]; [36]
  %max: 420%

## CCc1cn(CCC#N)c(=O)c2sc(CN(CC)c3ccc(F)cc3)cc12
[1]
  logD: 3.34
[2]
  IC50: > 30 µM
[3]
  EC50: 4.4 µM
[4]; [36]
  %max: 410%

## CCN(Cc1cc2ccn(CCC#N)c(=O)c2s1)c1ccc(F)cc1
[1]
  logD: 2.68
[2]
  IC50: > 30 µM
[3]
  EC50: 2.3 µM
[4]; [36]
  %max: 450%

## CCN(Cc1cc2c(C)cn(CCC#N)c(=O)c2s1)c1ccc(F)cc1
[1]
  logD: 3.01
[2]
  IC50: > 30 µM
[3]
  EC50: 0.18 µM
[4]; [36]
  %max: 480%

## CCN(Cc1cc2cc(C)n(CCC#N)c(=O)c2s1)c1ccc(F)cc1
[1]
  logD: 2.95
[2]
  IC50: 0.61 µM
[3]
  EC50: 0.6 µM
[4]; [36]
  %max: 440%

## CCN(Cc1cc2c(=O)n(CCC#N)ccc2s1)c1ccc(F)cc1
[1]
  logD: 2.92
[2]
  IC50: 0.61 µM
[3]
  EC50: > 30 µM
[4]; [36]
  %max: 320%

## N#C[C@H]1C[C@H]1c1c(Cl)ccc2nc(Cn3nc(C(F)(F)F)cc3Cl)cc(=O)n12
[31]
  %max: 471%
[32]
  EC50: > 30 µM
[33]
  EC50: 0.039 µM
[34]
  %max: 61%
[35]
  IC50: 0.38 µM

## Cc1cc(Cl)n(Cc2cc3c(=O)n(CCC#N)cc(C)n3n2)n1
[5]
  microsomal CLint at 1 µM: 10 µL/min/mg
[1]
  logD: 1.84
[2]
  IC50: > 30 µM
[6]
  microsomal CLint at 1 µM: 8 µL/min/mg
[4]
  %max: < 150%

## Cc1cn(CCC#N)c(=O)c2cc(Cn3nc(Br)cc3Cl)nn12
[5]
  microsomal CLint at 1 µM: 1 µL/min/mg
[1]
  logD: 2.16
[2]
  IC50: > 30 µM
[3]
  EC50: 1.5 µM
[4]; [36]
  %max: 160%

## Cc1cn([C@@H](C)CC#N)c(=O)c2cc(Cn3nc(C(F)F)cc3Cl)nn12
[1]
  logD: 2.06
[2]
  IC50: > 30 µM
[4]
  %max: < 150%

## N#C[C@H]1C[C@H]1c1c(C(F)(F)F)sc2nc(Cn3nc(C(F)(F)F)cc3Cl)cc(=O)n12
[31]
  %max: 416%
[32]
  EC50: 24 µM
[33]
  EC50: 0.011 µM
[34]; BLD = below limit of detection
  %max: Bld
[35]
  IC50: 0.88 µM

## Cc1cn(CCC#N)c(=O)c2cc(Cn3nc(Cl)cc3Cl)nn12
[5]
  microsomal CLint at 1 µM: 13 µL/min/mg
[1]
  logD: 2.07
[2]
  IC50: > 30 µM
[3]
  EC50: > 30 µM
[4]
  %max: < 150%

## Cc1cn(CCC#N)c(=O)c2cc(Cn3nc(C(F)F)cc3Cl)nn12
[1]
  logD: 1.88
[2]
  IC50: > 30 µM
[3]
  EC50: 2 µM
[4]; [36]
  %max: 220%

## CCN(Cc1ccc(C(=O)N2CCC[C@@H]2C#N)s1)c1ccc(F)cc1
[31]
  %max: 270%
[32]
  EC50: > 30 µM
[33]
  EC50: > 30 µM
[34]; BLD = below limit of detection
  %max: Bld
[1]
  logD: 2.06
[35]
  IC50: 1.2 µM

## Cc1cn(CCC#N)c(=O)c2cc(Cn3nc(C(F)(F)F)cc3Cl)nn12
[5]
  microsomal CLint at 1 µM: 7 µL/min/mg
[1]
  logD: 2.32
[2]
  IC50: 19 µM
[4]; [36]
  %max: 420%
